Here are results for 16 molecules from paper PMC6804253, “Predicting and Experimentally Validating Hot-Spot Residues at Protein–Protein Interfaces” (ACS Chemical Biology, 2019).

Where two headings read alike, the source gives them in different places. Where a SMILES comes first, the peptide text is derived from it. Where no end group is shown, it is not given here. The star is where a group is joined. 5FAM = O=C1OC2(c3ccc(O)cc3Oc3cc(O)ccc32)c2ccc(C(=O)*)cc21; AEEA = NCCOCCOCC(=O)O

For test [1], the system named is PPIs of the SKEMPI data set (by PDBID). Briefly: SKEMPI experimental ΔΔG, single mutations to alanine. The note with it: for sk_class (class of the SKEMPI experimental ΔΔG): Positive / Neutral / Negative by ΔΔG threshold 4.184 kJ/mol. Type of test: binding.
For test [2] the test system is unchanged. The note with it: cited from earlier work; for sk_ddG_kJ (SKEMPI experimental ΔΔG of binding, mutation to alanine): single mutation to alanine in the complex of the given PDBID.
Test [3] shares this test system. Conditions: Flex_ddG Talaris2014, 1 REU = 1 kcal/mol assumed; cited from earlier work.
For test [4] the test system is unchanged. Conditions: Flex_ddG Ref2015, 1 REU = 1 kcal/mol assumed; cited from earlier work.
Test [5] has as its target T1, SUMO-1 (Homo sapiens, UniProt P63165).
T1 construct: The pet19b His-TEV-SUMO-1 (18-97) construct was over-expressed; His-TEV (N, cleaved yes); made in house; host or cells: E. coli Rosetta 2
Type of test: binding.

Test [6] concerns the target T2, SHANK-PDZ (Homo sapiens, UniProt Q9Y566).
T2 sequence (Q9Y566 656-762): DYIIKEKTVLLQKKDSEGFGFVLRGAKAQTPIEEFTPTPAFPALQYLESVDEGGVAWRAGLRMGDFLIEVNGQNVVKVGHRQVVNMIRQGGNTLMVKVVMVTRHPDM
The note with it: for H (fitted ITC data): binding enthalpy from ITC fit; for H (fitted ITC data) / S (fitted ITC data): 20 mM Tris, 150 mM NaCl pH 7.5 at 25 °C; for S (fitted ITC data): binding entropy from ITC fit.

Where [7] appears, read: class of the experimental SKEMPI ΔΔG.
Where [8] appears, read: experimental ΔΔG of single mutation to alanine, SKEMPI database.
The mark [9] stands for this setting: class of the SKEMPI experimental ΔΔG, ref SKEMPI.
Setting [10] is: SKEMPI experimental ΔΔG of binding, single mutation to alanine, complex by PDBID, ref SKEMPI.

T1 sequence (P63165 18-97, species assumed): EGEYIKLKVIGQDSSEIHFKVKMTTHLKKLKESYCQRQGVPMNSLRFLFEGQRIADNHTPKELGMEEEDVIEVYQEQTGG

1A22 IA4A: the “sk_class (class of the SKEMPI experimental ΔΔG)” value in test [1] (ref SKEMPI) is “Neutral (neutral (little effect) 4.184 kJ/mol < ΔΔG > −4.184 kJ/mol)”. For the same molecule, the sk_class result in test [1] (setting [7]) is recorded as “Neutral (neutral (little effect) 4.184 kJ/mol < ΔΔG > −4.184 kJ/mol)”. Also, the sk_ddG_kJ in test [2] (setting [8]) was 0.411 kcal/mol. The “sk_ddG_kJ (SKEMPI experimental ΔΔG of binding, mutation to alanine)” value in test [2] (ref SKEMPI) is recorded as 1.72 kJ. Also, the rosetta_ddG_kJ in test [3] was -0.124 kcal/mol. For the same molecule, the ref2015_ddG_kJ in test [4] was -0.201 kcal/mol.

With 1A22 LA6A, in test [1] (ref SKEMPI), the “sk_class (class of the SKEMPI experimental ΔΔG)” value is “Neutral (neutral (little effect) 4.184 kJ/mol < ΔΔG > −4.184 kJ/mol)”. Further, the sk_class result in test [1] (setting [7]) was “Neutral (neutral (little effect) 4.184 kJ/mol < ΔΔG > −4.184 kJ/mol)”. The sk_ddG_kJ in test [2] (setting [8]) is 0.6 kcal/mol. In test [2] (ref SKEMPI), the “sk_ddG_kJ (SKEMPI experimental ΔΔG of binding, mutation to alanine)” value was 2.51 kJ. Moreover, the rosetta_ddG_kJ in test [3] was -0.0669 kcal/mol. Besides, in test [4], the ref2015_ddG_kJ is -0.184 kcal/mol.

On to 1A22 PA5A, for which the sk_class result in test [1] (setting [7]) is reported as “Neutral (neutral (little effect) 4.184 kJ/mol < ΔΔG > −4.184 kJ/mol)”. The “sk_class (class of SKEMPI experimental ΔΔG)” value in test [2] (class by ΔΔG threshold 4.184 kJ/mol, ref SKEMPI) is given as “Neutral (neutral (little effect) 4.184 kJ/mol < ΔΔG > −4.184 kJ/mol)”. Besides, the sk_ddG_kJ in test [2] (setting [8]) was 0.43 kcal/mol. Moreover, in test [2] (single mutation to alanine, complex given by PDBID, residue group in r_group, ref SKEMPI), the “sk_ddG_kJ (SKEMPI experimental ΔΔG, mutation to alanine)” value is reported as 1.80 kJ. The rosetta_ddG_kJ in test [3] is 0.146 kcal/mol. In test [4], the ref2015_ddG_kJ was 0.0406 kcal/mol.

Regarding 1A22 TA3A, the sk_class entry in test [1] (class of the SKEMPI experimental ΔΔG) and in test [1] (setting [7]) was “Neutral (neutral (little effect) 4.184 kJ/mol < ΔΔG > −4.184 kJ/mol)” throughout. Also, the sk_ddG_kJ in test [2] (setting [8]) is -0.0502 kcal/mol. Moreover, the “sk_ddG_kJ (SKEMPI experimental ΔΔG)” value in test [2] (single mutation to alanine, complex given by PDBID, mutation by mut_pdb, ref SKEMPI) is listed as -0.21 kJ. For the same molecule, in test [3], the rosetta_ddG_kJ was -0.0406 kcal/mol. Besides, in test [4], the ref2015_ddG_kJ is 0.0717 kcal/mol.

With `CC[C@H](C)[C@H](NC(=O)[C@H](C)NC(=O)[C@H](CC(N)=O)NC(=O)[C@H](CC(=O)O)NC(=O)COCCOCCNC(=O)c1ccc2c(c1)C(=O)OC21c2ccc(O)cc2Oc2cc(O)ccc21)C(=O)N[C@@H](CCC(=O)O)C(=O)N[C@H](C(=O)N[C@H](C(=O)N[C@H](C(=O)N[C@H](C(=O)N[C@@H](Cc1c[nH]c2ccccc12)C(=O)N[C@@H](CCC(=O)O)C(=O)N[C@@H](CCCCN)C(=O)N[C@@H](CCCCN)C(N)=O)C(C)C)[C@@H](C)CC)[C@@H](C)CC)C(C)C` [FAM-E2707A SIM] ({5FAM-AEEA}-DNAIEVIIVWEKK-NH2), in test [5], the “Experimental competition (ΔΔG on mutation of the residue to alanine)” value is reported as 1.7 and the “Experimental competition (ΔΔG)” value worked out at 0.406 kcal/mol.

Take `CC[C@H](C)[C@H](NC(=O)[C@H](CCC(=O)O)NC(=O)[C@H](CC(N)=O)NC(=O)[C@H](CC(=O)O)NC(=O)COCCOCCNC(=O)c1ccc2c(c1)C(=O)OC21c2ccc(O)cc2Oc2cc(O)ccc21)C(=O)N[C@@H](CCC(=O)O)C(=O)N[C@H](C(=O)N[C@H](C(=O)N[C@@H](C)C(=O)N[C@H](C(=O)N[C@@H](Cc1c[nH]c2ccccc12)C(=O)N[C@@H](CCC(=O)O)C(=O)N[C@@H](CCCCN)C(=O)N[C@@H](CCCCN)C(N)=O)C(C)C)[C@@H](C)CC)C(C)C` [FAM-I2712A SIM] ({5FAM-AEEA}-DNEIEVIAVWEKK-NH2): in test [5], the “Experimental competition (ΔΔG on mutation of the residue to alanine)” value came to 5.7 and the “Experimental competition (ΔΔG)” value was 1.36 kcal/mol.

On to `CC[C@H](C)[C@H](NC(=O)[C@H](C)NC(=O)[C@H](CCC(=O)O)NC(=O)[C@@H](NC(=O)[C@H](CCC(=O)O)NC(=O)[C@H](CC(N)=O)NC(=O)[C@H](CC(=O)O)NC(=O)COCCOCCNC(=O)c1ccc2c(c1)C(=O)OC21c2ccc(O)cc2Oc2cc(O)ccc21)[C@@H](C)CC)C(=O)N[C@H](C(=O)N[C@H](C(=O)N[C@@H](Cc1c[nH]c2ccccc12)C(=O)N[C@@H](CCC(=O)O)C(=O)N[C@@H](CCCCN)C(=O)N[C@@H](CCCCN)C(N)=O)C(C)C)[C@@H](C)CC` [FAM-V2710A SIM] ({5FAM-AEEA}-DNEIEAIIVWEKK-NH2), for which, in test [5], the “Experimental competition (ΔΔG on mutation of the residue to alanine)” value came out at 4.7 and the “Experimental competition (ΔΔG)” value amounted to 1.12 kcal/mol.

As to `CC[C@H](C)[C@H](NC(=O)[C@H](CCC(=O)O)NC(=O)[C@H](CC(N)=O)NC(=O)[C@H](CC(=O)O)NC(=O)COCCOCCNC(=O)c1ccc2c(c1)C(=O)OC21c2ccc(O)cc2Oc2cc(O)ccc21)C(=O)N[C@@H](CCC(=O)O)C(=O)N[C@H](C(=O)N[C@H](C(=O)N[C@H](C(=O)N[C@H](C(=O)N[C@@H](C)C(=O)N[C@@H](CCC(=O)O)C(=O)N[C@@H](CCCCN)C(=O)N[C@@H](CCCCN)C(N)=O)C(C)C)[C@@H](C)CC)[C@@H](C)CC)C(C)C` [FAM-W2714A SIM] ({5FAM-AEEA}-DNEIEVIIVAEKK-NH2), in test [5], the “Experimental competition (ΔΔG on mutation of the residue to alanine)” value is 8.1 and the “Experimental competition (ΔΔG)” value was determined as 1.94 kcal/mol.

With Ac-EAQTRL [GKAP], in test [6], the “H (fitted ITC data)” value is recorded as -6.54 ± 0.04 kcal/mol and the “S (fitted ITC data)” value is recorded as 3.49 cal/molK.

In the case of Ac-EAQTRL-NH2 [CO2H-CONH2 GKAP], in test [6], the “Experimental ΔΔG, direct titration” value was 2.72 kcal/mol; the “H (fitted ITC data)” value is on record as -1.57 ± 0.18 kcal/mol; the “S (fitted ITC data)” value is 11.2 cal/molK.

B1: 1DAN DT58A (protein, UniProt P13726 33-251, looked up, variant D58A)
extracellular domain: SGTTNTVAAYNLTWKSTNFKTILEWEPKPVNQVYTVQISTKSGDWKSKCFYTTDTECALTDEIVKDVKQTYLARVFSYPAGNVESTGSAGEPLYENSPEFTPYLETNLGQPTIQSFEQVGTKVNVTVEDERTLVRRNNTFLSLRDVFGKDLIYTLYYWKSSSSGKKTAKTNTNEFLIDVDKGENYCFSVQAVIPSRTVNRKSTDSPVECMGQEKGEFRE
modifications: extracellular domain
With B1, in test [1] (setting [9]), the sk_class entry is “Positive (positive (a hot residue) ΔΔG ≥ 4.184 kJ/mol)”. Moreover, in test [2] (setting [10]), the sk_ddG_kJ is 8.37 kJ.

B2: 1DAN EU128A (protein, UniProt P13726 33-251, looked up, variant E128A)
extracellular domain: SGTTNTVAAYNLTWKSTNFKTILEWEPKPVNQVYTVQISTKSGDWKSKCFYTTDTECDLTDEIVKDVKQTYLARVFSYPAGNVESTGSAGEPLYENSPEFTPYLETNLGQPTIQSFEQVGTKVNVTVADERTLVRRNNTFLSLRDVFGKDLIYTLYYWKSSSSGKKTAKTNTNEFLIDVDKGENYCFSVQAVIPSRTVNRKSTDSPVECMGQEKGEFRE
modifications: extracellular domain
Take B2: the sk_class entry in test [1] (setting [9]) was “Neutral (neutral (little effect) 4.184 kJ/mol < ΔΔG > −4.184 kJ/mol)”. The sk_ddG_kJ in test [2] (setting [10]) is 0.38 kJ.

B3: 1DAN DU129A (protein, UniProt P13726 33-251, looked up, variant D129A)
extracellular domain: SGTTNTVAAYNLTWKSTNFKTILEWEPKPVNQVYTVQISTKSGDWKSKCFYTTDTECDLTDEIVKDVKQTYLARVFSYPAGNVESTGSAGEPLYENSPEFTPYLETNLGQPTIQSFEQVGTKVNVTVEAERTLVRRNNTFLSLRDVFGKDLIYTLYYWKSSSSGKKTAKTNTNEFLIDVDKGENYCFSVQAVIPSRTVNRKSTDSPVECMGQEKGEFRE
modifications: extracellular domain
As for B3, the sk_class result in test [1] (setting [9]) was “Neutral (neutral (little effect) 4.184 kJ/mol < ΔΔG > −4.184 kJ/mol)”. For the same molecule, the sk_ddG_kJ in test [2] (setting [10]) was -0.08 kJ.

B4: 1DAN EU99A (protein, UniProt P13726 33-251, looked up, variant E99A)
extracellular domain: SGTTNTVAAYNLTWKSTNFKTILEWEPKPVNQVYTVQISTKSGDWKSKCFYTTDTECDLTDEIVKDVKQTYLARVFSYPAGNVESTGSAGEPLYENSPAFTPYLETNLGQPTIQSFEQVGTKVNVTVEDERTLVRRNNTFLSLRDVFGKDLIYTLYYWKSSSSGKKTAKTNTNEFLIDVDKGENYCFSVQAVIPSRTVNRKSTDSPVECMGQEKGEFRE
modifications: extracellular domain
B4: in test [1] (setting [9]), the sk_class entry is “Neutral (neutral (little effect) 4.184 kJ/mol < ΔΔG > −4.184 kJ/mol)”. Moreover, the sk_ddG_kJ in test [2] (setting [10]) is recorded as -0.75 kJ.

B5: 1DAN RU131A (protein, UniProt P13726 33-251, looked up, variant R131A)
extracellular domain: SGTTNTVAAYNLTWKSTNFKTILEWEPKPVNQVYTVQISTKSGDWKSKCFYTTDTECDLTDEIVKDVKQTYLARVFSYPAGNVESTGSAGEPLYENSPEFTPYLETNLGQPTIQSFEQVGTKVNVTVEDEATLVRRNNTFLSLRDVFGKDLIYTLYYWKSSSSGKKTAKTNTNEFLIDVDKGENYCFSVQAVIPSRTVNRKSTDSPVECMGQEKGEFRE
modifications: extracellular domain
Take B5: in test [1] (setting [9]), the sk_class entry is “Neutral (neutral (little effect) 4.184 kJ/mol < ΔΔG > −4.184 kJ/mol)”. Besides, in test [2] (setting [10]), the sk_ddG_kJ is reported as 0.00 kJ.

B6: 1DAN KU122A (protein, UniProt P13726 33-251, looked up, variant K122A)
extracellular domain: SGTTNTVAAYNLTWKSTNFKTILEWEPKPVNQVYTVQISTKSGDWKSKCFYTTDTECDLTDEIVKDVKQTYLARVFSYPAGNVESTGSAGEPLYENSPEFTPYLETNLGQPTIQSFEQVGTAVNVTVEDERTLVRRNNTFLSLRDVFGKDLIYTLYYWKSSSSGKKTAKTNTNEFLIDVDKGENYCFSVQAVIPSRTVNRKSTDSPVECMGQEKGEFRE
modifications: extracellular domain
Regarding B6, the sk_class result in test [1] (setting [9]) is on record as “Neutral (neutral (little effect) 4.184 kJ/mol < ΔΔG > −4.184 kJ/mol)”. In test [2] (setting [10]), the sk_ddG_kJ was -0.50 kJ.
